# What was measured:
# Experiment in all cases: relative viability (nuclei count vs DMSO), 5 days (fraction); higher = more cells survive
# MIM1 = compound: CC1=CSC(=NC2CCCCC2)N1/N=C/C3=C(C(=C(C=C3)O)O)O [MIM1]
# Summary of the method: (§1)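 In 1536-well plates, lung cancer cell lines rested overnight at 37 °C before five library-drug doses (not always all listed), √10 apart, were pinned onto vehicle-anchored plates. Nuclei were counted with MetaXpress from 4× Hoechst images taken after 5 days without medium change. Viability compares treated-well with vehicle-well nuclei as a median over plates, and plates needed control CV below 25% plus at least one doubling to pass.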
# Luminespib = compound: CCNC(=O)c1noc(-c2cc(C(C)C)c(O)cc2O)c1-c1ccc(CN2CCOCC2)cc1 [Luminespib]
# Summary of the method: as §1
# Saracatinib = compound: CN1CCN(CCOc2cc(OC3CCOCC3)c3c(Nc4c(Cl)ccc5c4OCO5)ncnc3c2)CC1 [Saracatinib]
# Summary of the method: as §1
# Nilotinib = compound: Cc1cn(-c2cc(NC(=O)c3ccc(C)c(Nc4nccc(-c5cccnc5)n4)c3)cc(C(F)(F)F)c2)cn1 [Nilotinib]
# Summary of the method: as §1
# Lenalidomide = compound: Nc1cccc2c1CN(C1CCC(=O)NC1=O)C2=O [Lenalidomide]
# Summary of the method: as §1
Cell Line,relative viability (MIM1; 0.2 µM),relative viability (MIM1; 0.6325 µM),relative viability (MIM1; 2 µM),relative viability (MIM1; 6.325 µM),relative viability (MIM1; 20 µM),relative viability (Luminespib; 0.002 µM),relative viability (Luminespib; 0.006325 µM),"relative viability (Luminespib; 0.01 µM, anchor plate)",relative viability (Luminespib; 0.02 µM),relative viability (Luminespib; 0.06325 µM),relative viability (Luminespib; 0.2 µM),relative viability (Saracatinib; 0.02 µM),relative viability (Saracatinib; 0.2 µM),relative viability (Saracatinib; 0.6325 µM),relative viability (Saracatinib; 2 µM),relative viability (Nilotinib; 0.001 µM),relative viability (Nilotinib; 0.003162 µM),relative viability (Nilotinib; 0.01 µM),relative viability (Nilotinib; 0.03162 µM),relative viability (Nilotinib; 0.1 µM),relative viability (Lenalidomide; 0.253 µM),relative viability (Lenalidomide; 0.8 µM),relative viability (Lenalidomide; 2.53 µM),relative viability (Lenalidomide; 8 µM)
NCI-H2228,0.999,0.978,1.31,0.517,0.172,1.23,0.87,0.148,0.451,0.172,0.157,1.04,0.825,0.9,0.841,0.773,1.5,1.36,0.698,0.511,0.795,1.07,1.22,0.89
NCI-H2342,0.944,1,1.01,0.803,1.03,0.974,0.955,0.76,0.619,0.774,0.592,1.07,0.947,1.14,0.945,0.868,0.928,1.02,0.831,1.02,1.01,0.952,1.04,0.733
NCI-H2347,1.1,0.972,1.09,0.757,0.478,1.02,0.721,0.421,0.911,0.722,0.318,0.983,0.903,1.09,1.06,0.97,1.14,1.13,0.841,0.793,1.03,1.13,1.17,0.9
NCI-H2405,1.02,1.08,1.05,0.742,0.573,1.07,0.837,0.686,0.831,0.274,0.212,0.985,0.861,0.775,0.52,0.994,0.975,0.966,0.821,0.551,0.969,0.909,1.01,0.831
NCI-H3122,0.979,1.04,1.01,0.551,0.257,1.05,0.958,0.0888,0.627,0.507,0.117,0.969,0.717,0.845,0.803,1.03,1.21,1.23,0.971,0.956,0.999,1.04,1.01,1.06
PC-3 [JPC-3],1.05,1.04,0.988,0.874,0.439,1.01,0.915,0.669,0.982,0.961,0.281,1.02,0.945,0.766,0.541,1.03,1.07,1.11,1,0.656,1.03,0.899,1.13,1.08
PC-14,0.959,1.01,0.836,0.807,0.325,1.02,0.933,0.164,0.572,0.0917,0.0993,1.01,0.675,0.453,0.234,0.944,1.14,1.26,0.879,0.643,1.01,1.02,1.12,1.1
RERF-LC-KJ,0.932,0.977,0.823,0.574,0.271,0.979,0.994,1.24,0.844,0.314,0.234,1.1,0.979,1.02,0.981,0.932,1.1,1.12,0.868,0.81,1.06,0.947,1.08,0.943
SK-LU-1,1.05,1.08,1.12,0.934,0.617,1.09,0.777,0.202,0.644,0.186,0.192,1.03,0.802,0.707,0.53,0.932,0.927,1.24,0.718,0.894,0.963,1.03,1.23,0.903
SK-MES-1,1.02,0.986,0.996,0.766,0.507,0.986,0.931,0.831,0.903,0.171,0.145,1,0.894,0.817,0.579,0.994,1.13,1.26,0.924,0.877,0.988,0.995,1.06,0.936
SW 900,0.915,0.947,0.782,0.502,0.158,0.945,0.732,0.18,0.474,0.138,0.132,0.97,0.658,0.878,0.694,0.748,0.939,1.07,0.639,0.611,0.809,–,1.03,0.598
SW 1573,1.1,0.966,0.976,0.763,0.488,1.04,0.976,0.217,0.595,0.108,0.107,0.931,0.785,0.877,0.729,0.906,1.2,1.12,0.737,0.66,0.914,1.01,1.08,0.925
UMC-11,0.962,0.725,1.08,0.747,0.284,0.962,0.976,1.03,0.471,0.587,0.221,0.971,0.729,1.02,0.807,0.934,1.09,1.15,0.686,0.863,0.999,0.846,1.09,0.778

# — the supplement of paper PMC10307832
